Assay results reported in ChEMBL document CHEMBL1129220, “Synthesis and structure-activity relationships of novel 3-Hty-substituted pneumocandins” (Bioorg Med Chem Lett, 1997).
Values after ≈ are worked out from the molar mass of the structure shown.

System: Mus musculus
Test: In vivo anti-Candida activity was obtained in the target organ kidney assay (TOKA), a mouse model of disseminated candidiasis; 20% of animals in test group with kidneys were completely sterilized of Candida albicans at the ED99.9 dose
Format: functional

| SMILES | ED99.9 [mg/kg] |
| --- | --- |
| CCC(C)CC(C)CCCCCCCCC(=O)N[C@@H]1C[C@@H](O)[C@@H](O)NC(=O)[C@@H]2[C@@H](O)CCN2C(=O)[C@H]([C@@H](O)CC(N)=O)NC(=O)[C@H]([C@@H](O)[C@H](O)c2ccc(O)cc2)NC(=O)[C@@H]2C[C@@H](O)CN2C(=O)[C@H]([C@@H](C)O)NC1=O (some centres undefined) | 6 |

System: Mus musculus
Test: In vivo anti-Candida activity was obtained in the target organ kidney assay (TOKA), a mouse model of disseminated candidiasis; 0% of animals in test group with kidneys were completely sterilized of Candida albicans at the ED99.9 dose
Format: functional

| SMILES | ED99.9 [mg/kg] |
| --- | --- |
| CCC(C)CC(C)CCCCCCCCC(=O)N[C@@H]1C[C@@H](O)[C@@H](O)NC(=O)[C@@H]2[C@@H](O)CCN2C(=O)[C@H]([C@@H](O)CC(N)=O)NC(=O)[C@H]([C@@H](O)[C@H](O)c2ccc(O)c(NC(=O)CCC(=O)O)c2)NC(=O)[C@@H]2C[C@@H](O)CN2C(=O)[C@H]([C@@H](C)O)NC1=O (some centres undefined) | 6 |
| CCC(C)CC(C)CCCCCCCCC(=O)N[C@@H]1C[C@@H](O)[C@@H](O)NC(=O)[C@@H]2[C@@H](O)CCN2C(=O)[C@H]([C@@H](O)CC(N)=O)NC(=O)[C@H]([C@@H](O)[C@H](O)c2ccc(O)c(NC(=O)CCN)c2)NC(=O)[C@@H]2C[C@@H](O)CN2C(=O)[C@H]([C@@H](C)O)NC1=O (some centres undefined) | 0.78 |

System: Mus musculus
Test: In vivo anti-Candida activity was obtained in the target organ kidney assay (TOKA), a mouse model of disseminated candidiasis; 40% of animals in test group with kidneys were completely sterilized of Candida albicans at the ED99.9 dose
Format: functional

| SMILES | ED99.9 [mg/kg] |
| --- | --- |
| CCC(C)CC(C)CCCCCCCCC(=O)N[C@@H]1C[C@@H](O)[C@@H](O)NC(=O)[C@@H]2[C@@H](O)CCN2C(=O)[C@H]([C@@H](O)CC(N)=O)NC(=O)[C@H]([C@@H](O)[C@H](O)c2ccc(O)c(NC(=O)CN)c2)NC(=O)[C@@H]2C[C@@H](O)CN2C(=O)[C@H]([C@@H](C)O)NC1=O (some centres undefined) | 0.75 |

System: Candida albicans
Test: In vitro minimum fungicidal concentration against Candida albicans (MY 1055) using a whole cell broth microdilution assay.
Format: functional

| SMILES | MFC [µg/mL] |
| --- | --- |
| CCC(C)CC(C)CCCCCCCCC(=O)N[C@@H]1C[C@@H](O)CNC(=O)[C@@H]2[C@@H](O)CCN2C(=O)[C@H]([C@@H](O)CC(N)=O)NC(=O)[C@H]([C@@H](O)Cc2ccc(O)c(CCO)c2)NC(=O)[C@@H]2C[C@@H](O)CN2C(=O)[C@H]([C@@H](C)O)NC1=O (some centres undefined) | 0.5 (≈ 0.464 µM) |
| CCC(C)CC(C)CCCCCCCCC(=O)N[C@@H]1C[C@@H](O)[C@@H](O)NC(=O)[C@@H]2[C@@H](O)CCN2C(=O)[C@H]([C@@H](O)CC(N)=O)NC(=O)[C@H]([C@@H](O)[C@H](O)c2ccc(O)c(NC(=O)CS)c2)NC(=O)[C@@H]2C[C@@H](O)CN2C(=O)[C@H]([C@@H](C)O)NC1=O (some centres undefined) | 2 (≈ 1.73 µM) |
| CCC(C)CC(C)CCCCCCCCC(=O)N[C@@H]1C[C@@H](O)[C@@H](O)NC(=O)[C@@H]2[C@@H](O)CCN2C(=O)[C@H]([C@@H](O)CC(N)=O)NC(=O)[C@H]([C@@H](O)[C@H](O)c2cc(I)c(O)c(I)c2)NC(=O)[C@@H]2C[C@@H](O)CN2C(=O)[C@H]([C@@H](C)O)NC1=O (some centres undefined) | 8 (≈ 6.07 µM) |
| CCC(C)CC(C)CCCCCCCCC(=O)N[C@@H]1C[C@@H](O)CNC(=O)[C@@H]2[C@@H](O)CCN2C(=O)[C@H]([C@@H](O)CC(N)=O)NC(=O)[C@H]([C@@H](O)Cc2ccc(O)c([N+](=O)[O-])c2)NC(=O)[C@@H]2C[C@@H](O)CN2C(=O)[C@H]([C@@H](C)O)NC1=O (some centres undefined) | 2 (≈ 1.85 µM) |
| C=CCc1cc(C[C@H](O)[C@@H]2NC(=O)[C@@H]3C[C@@H](O)CN3C(=O)[C@H]([C@@H](C)O)NC(=O)[C@H](NC(=O)CCCCCCCCC(C)CC(C)CC)C[C@@H](O)CNC(=O)[C@@H]3[C@@H](O)CCN3C(=O)[C@H]([C@@H](O)CC(N)=O)NC2=O)ccc1O (some centres undefined) | 1 (≈ 0.932 µM) |
| CCC(C)CC(C)CCCCCCCCC(=O)N[C@@H]1C[C@@H](O)[C@@H](O)NC(=O)[C@@H]2[C@@H](O)CCN2C(=O)[C@H]([C@@H](O)CC(N)=O)NC(=O)[C@H]([C@@H](O)[C@H](O)c2ccc(O)c(NC(=O)CCC(=O)O)c2)NC(=O)[C@@H]2C[C@@H](O)CN2C(=O)[C@H]([C@@H](C)O)NC1=O (some centres undefined) | 0.25 (≈ 0.212 µM) |
| CCCc1cc(C[C@H](O)[C@@H]2NC(=O)[C@@H]3C[C@@H](O)CN3C(=O)[C@H]([C@@H](C)O)NC(=O)[C@H](NC(=O)CCCCCCCCC(C)CC(C)CC)C[C@@H](O)CNC(=O)[C@@H]3[C@@H](O)CCN3C(=O)[C@H]([C@@H](O)CC(N)=O)NC2=O)ccc1O (some centres undefined) | 0.5 (≈ 0.465 µM) |
| CCC(C)CC(C)CCCCCCCCC(=O)N[C@@H]1C[C@@H](O)CNC(=O)[C@@H]2[C@@H](O)CCN2C(=O)[C@H]([C@@H](O)CC(N)=O)NC(=O)[C@H]([C@@H](O)Cc2ccc(O)c(C=O)c2)NC(=O)[C@@H]2C[C@@H](O)CN2C(=O)[C@H]([C@@H](C)O)NC1=O (some centres undefined) | 1 (≈ 0.942 µM) |
| CCC(C)CC(C)CCCCCCCCC(=O)N[C@@H]1C[C@@H](O)[C@@H](O)NC(=O)[C@@H]2[C@@H](O)CCN2C(=O)[C@H]([C@@H](O)CC(N)=O)NC(=O)[C@H]([C@@H](O)[C@H](O)c2ccc(O)c(I)c2)NC(=O)[C@@H]2C[C@@H](O)CN2C(=O)[C@H]([C@@H](C)O)NC1=O (some centres undefined) | 4 (≈ 3.36 µM) |
| CCC(C)CC(C)CCCCCCCCC(=O)N[C@@H]1C[C@@H](O)[C@@H](O)NC(=O)[C@@H]2[C@@H](O)CCN2C(=O)[C@H]([C@@H](O)CC(N)=O)NC(=O)[C@H]([C@@H](O)[C@H](O)c2ccc(O)c(N=[N+]=[N-])c2)NC(=O)[C@@H]2C[C@@H](O)CN2C(=O)[C@H]([C@@H](C)O)NC1=O (some centres undefined) | 0.5 (≈ 0.452 µM) |
| CCC(C)CC(C)CCCCCCCCC(=O)N[C@@H]1C[C@@H](O)CNC(=O)[C@@H]2[C@@H](O)CCN2C(=O)[C@H]([C@@H](O)CC(N)=O)NC(=O)[C@H]([C@@H](O)Cc2ccc(O)c(O)c2)NC(=O)[C@@H]2C[C@@H](O)CN2C(=O)[C@H]([C@@H](C)O)NC1=O (some centres undefined) | 0.5 (≈ 0.477 µM) |
| CCC(C)CC(C)CCCCCCCCC(=O)N[C@@H]1C[C@@H](O)[C@@H](O)NC(=O)[C@@H]2[C@@H](O)CCN2C(=O)[C@H]([C@@H](O)CC(N)=O)NC(=O)[C@H]([C@@H](O)[C@H](O)c2ccc(O)c(NC(=O)CCN)c2)NC(=O)[C@@H]2C[C@@H](O)CN2C(=O)[C@H]([C@@H](C)O)NC1=O (some centres undefined) | 0.25 (≈ 0.217 µM) |
| CCC(C)CC(C)CCCCCCCCC(=O)N[C@@H]1C[C@@H](O)CNC(=O)[C@@H]2[C@@H](O)CCN2C(=O)[C@H]([C@@H](O)CC(N)=O)NC(=O)[C@H]([C@@H](O)Cc2ccc3c(c2)CC(O)O3)NC(=O)[C@@H]2C[C@@H](O)CN2C(=O)[C@H]([C@@H](C)O)NC1=O (some centres undefined) | 1 (≈ 0.93 µM) |
| CCC(C)CC(C)CCCCCCCCC(=O)N[C@@H]1C[C@@H](O)[C@@H](O)NC(=O)[C@@H]2[C@@H](O)CCN2C(=O)[C@H]([C@@H](O)CC(N)=O)NC(=O)[C@H]([C@@H](O)[C@H](O)c2ccc(O)c(NC(=O)CN)c2)NC(=O)[C@@H]2C[C@@H](O)CN2C(=O)[C@H]([C@@H](C)O)NC1=O (some centres undefined) | 0.25 (≈ 0.22 µM) |
| CCc1cc(C[C@H](O)[C@@H]2NC(=O)[C@@H]3C[C@@H](O)CN3C(=O)[C@H]([C@@H](C)O)NC(=O)[C@H](NC(=O)CCCCCCCCC(C)CC(C)CC)C[C@@H](O)CNC(=O)[C@@H]3[C@@H](O)CCN3C(=O)[C@H]([C@@H](O)CC(N)=O)NC2=O)ccc1O (some centres undefined) | 1 (≈ 0.942 µM) |
| C=Cc1cc(C[C@H](O)[C@@H]2NC(=O)[C@@H]3C[C@@H](O)CN3C(=O)[C@H]([C@@H](C)O)NC(=O)[C@H](NC(=O)CCCCCCCCC(C)CC(C)CC)C[C@@H](O)CNC(=O)[C@@H]3[C@@H](O)CCN3C(=O)[C@H]([C@@H](O)CC(N)=O)NC2=O)ccc1O (some centres undefined) | 1 (≈ 0.944 µM) |
| CCC(C)CC(C)CCCCCCCCC(=O)N[C@@H]1C[C@@H](O)[C@@H](O)NC(=O)[C@@H]2[C@@H](O)CCN2C(=O)[C@H]([C@@H](O)CC(N)=O)NC(=O)[C@H]([C@@H](O)[C@H](O)c2ccc(O)c(NC(C)=O)c2)NC(=O)[C@@H]2C[C@@H](O)CN2C(=O)[C@H]([C@@H](C)O)NC1=O (some centres undefined) | 1 (≈ 0.891 µM) |
| CCC(C)CC(C)CCCCCCCCC(=O)N[C@@H]1C[C@@H](O)CNC(=O)[C@@H]2[C@@H](O)CCN2C(=O)[C@H]([C@@H](O)CC(N)=O)NC(=O)[C@H]([C@@H](O)Cc2ccc(O)c(N=[N+]=[N-])c2)NC(=O)[C@@H]2C[C@@H](O)CN2C(=O)[C@H]([C@@H](C)O)NC1=O (some centres undefined) | 4 (≈ 3.72 µM) |
| CCC(C)CC(C)CCCCCCCCC(=O)N[C@@H]1C[C@@H](O)[C@@H](O)NC(=O)[C@@H]2[C@@H](O)CCN2C(=O)[C@H]([C@@H](O)CC(N)=O)NC(=O)[C@H]([C@@H](O)[C@H](O)c2ccc(O)c(N)c2)NC(=O)[C@@H]2C[C@@H](O)CN2C(=O)[C@H]([C@@H](C)O)NC1=O (some centres undefined) | 2 (≈ 1.85 µM) |
| CCC(C)CC(C)CCCCCCCCC(=O)N[C@@H]1C[C@@H](O)CNC(=O)[C@@H]2[C@@H](O)CCN2C(=O)[C@H]([C@@H](O)CC(N)=O)NC(=O)[C@H]([C@@H](O)Cc2ccc(O)c(N)c2)NC(=O)[C@@H]2C[C@@H](O)CN2C(=O)[C@H]([C@@H](C)O)NC1=O (some centres undefined) | 2 (≈ 1.91 µM) |
| CCC(C)CC(C)CCCCCCCCC(=O)N[C@@H]1C[C@@H](O)CNC(=O)[C@@H]2[C@@H](O)CCN2C(=O)[C@H]([C@@H](O)CC(N)=O)NC(=O)[C@H]([C@@H](O)Cc2ccc(O)c(I)c2)NC(=O)[C@@H]2C[C@@H](O)CN2C(=O)[C@H]([C@@H](C)O)NC1=O (some centres undefined) | 0.5 (≈ 0.431 µM) |
| CCC(C)CC(C)CCCCCCCCC(=O)N[C@@H]1C[C@@H](O)CNC(=O)[C@@H]2[C@@H](O)CCN2C(=O)[C@H]([C@@H](O)CC(N)=O)NC(=O)[C@H]([C@@H](O)Cc2ccc(O)cc2)NC(=O)[C@@H]2C[C@@H](O)CN2C(=O)[C@H]([C@@H](C)O)NC1=O (some centres undefined) | 0.25 (≈ 0.242 µM) |
| CCC(C)CC(C)CCCCCCCCC(=O)N[C@@H]1C[C@@H](O)[C@@H](O)NC(=O)[C@@H]2[C@@H](O)CCN2C(=O)[C@H]([C@@H](O)CC(N)=O)NC(=O)[C@H]([C@@H](O)[C@H](O)c2ccc(O)c([N+](=O)[O-])c2)NC(=O)[C@@H]2C[C@@H](O)CN2C(=O)[C@H]([C@@H](C)O)NC1=O (some centres undefined) | 8 (≈ 7.21 µM) |
| CCC(C)CC(C)CCCCCCCCC(=O)N[C@@H]1C[C@@H](O)[C@@H](O)NC(=O)[C@@H]2[C@@H](O)CCN2C(=O)[C@H]([C@@H](O)CC(N)=O)NC(=O)[C@H]([C@@H](O)[C@H](O)c2ccc(O)cc2)NC(=O)[C@@H]2C[C@@H](O)CN2C(=O)[C@H]([C@@H](C)O)NC1=O (some centres undefined) | 0.25 (≈ 0.235 µM) |
| CCC(C)CC(C)CCCCCCCCC(=O)N[C@@H]1C[C@@H](O)CNC(=O)[C@@H]2[C@@H](O)CCN2C(=O)[C@H]([C@@H](O)CC(N)=O)NC(=O)[C@H]([C@@H](O)Cc2ccc(O)c(C(=O)OC)c2)NC(=O)[C@@H]2C[C@@H](O)CN2C(=O)[C@H]([C@@H](C)O)NC1=O (some centres undefined) | 2 (≈ 1.83 µM) |
